Assay results published in PubChem BioAssay (NCI).
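1) Cells in 96-well plates. 2) Compound, 48 h, 5 concentrations. 3) Linear interpolation between surrounding doses. 4) Unreached endpoint = highest concentration. Abbreviation: GI50, concentration required for 50% inhibition of growth. TGI denotes the concentration required for complete inhibition of growth.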

Assays:
Test in all cases: NCI anticancer screen, dose series, 48 h
[1] = tested on: RXF 393 renal
[2] = tested on: MDA-N
[3] = tested on: 786-0 renal
[4] = tested on: CAKI-1 renal
[5] = tested on: K-562 leukemia
[6] = tested on: SF-295 CNS
[7] = tested on: SK-OV-3 ovarian
[8] = tested on: SK-MEL-5 melanoma
[9] = tested on: M14 melanoma
[10] = tested on: SNB-75 CNS
[11] = tested on: MCF7 breast
[12] = tested on: HCT-15 colon
[13] = tested on: UACC-62 melanoma
[14] = tested on: SK-MEL-28 melanoma
[15] = tested on: NCI/ADR-RES ovarian
[16] = tested on: U251 CNS
[17] = tested on: MALME-3M melanoma
[18] = tested on: OVCAR-3 ovarian
[19] = tested on: BT-549 breast
[20] = tested on: NCI-H460 lung
[21] = tested on: SR leukemia
[22] = tested on: COLO 205 colon
[23] = tested on: MDA-MB-231 breast
[24] = tested on: HOP-62 NSCLC
[25] = tested on: MDA-MB-435
[26] = tested on: SK-MEL-2 melanoma
[27] = tested on: HT29 colon
[28] = tested on: DU-145 prostate
[29] = tested on: SW-620 colon
[30] = tested on: A549 NSCLC
[31] = tested on: UACC-257 melanoma
[32] = tested on: SF-539 CNS
[33] = tested on: T-47D breast
[34] = tested on: HCC-2998 colon
[35] = tested on: ACHN renal
[36] = tested on: SNB-19 CNS
[37] = tested on: LOX IMVI melanoma
[38] = tested on: RPMI-8226 leukemia
[39] = tested on: HCT-116 colon
[40] = tested on: IGROV1 ovarian
[41] = tested on: KM12 colon
[42] = tested on: HOP-92 NSCLC
[43] = tested on: A498 renal
[44] = tested on: MOLT-4 leukemia
[45] = tested on: OVCAR-8 ovarian
[46] = tested on: OVCAR-4 ovarian
[47] = tested on: PC-3 prostate
[48] = tested on: NCI-H226 lung
[49] = tested on: OVCAR-5 ovarian
[50] = tested on: NCI-H522 lung
[51] = tested on: SN12C renal
[52] = tested on: HS 578T breast
[53] = tested on: EKVX NSCLC
[54] = tested on: NCI-H23 lung
[55] = tested on: CCRF-CEM leukemia
[56] = tested on: SF-268 CNS
[57] = tested on: HL-60(TB) leukemia
[58] = tested on: TK-10 renal
[59] = tested on: UO-31 renal

CSC1(C)C(=O)Nc2c(OCc3ccccc3)cc([N+](=O)[O-])cc21 (stereo not given)
TGI [1]: > 100 µM
TGI [2]: > 100 µM
TGI [3]: 31 µM
TGI [4]: > 100 µM
TGI [5]: > 100 µM
TGI [6]: > 100 µM
TGI [7]: > 100 µM
TGI [8]: > 100 µM
TGI [9]: > 100 µM
TGI [10]: 35.7 µM
TGI [11]: 44.1 µM
TGI [12]: > 100 µM
TGI [13]: > 100 µM
TGI [14]: > 100 µM
TGI [15]: > 100 µM
TGI [16]: 37.3 µM
TGI [17]: > 100 µM
TGI [18]: > 100 µM
TGI [19]: > 100 µM
TGI [20]: > 100 µM
TGI [21]: > 100 µM
TGI [22]: > 100 µM
TGI [23]: > 100 µM
TGI [24]: > 100 µM
TGI [25]: > 100 µM
TGI [26]: > 100 µM
TGI [27]: > 100 µM
TGI [28]: > 100 µM
TGI [29]: > 100 µM
TGI [30]: > 100 µM
TGI [31]: > 100 µM
TGI [32]: > 100 µM
TGI [33]: > 100 µM
TGI [34]: > 100 µM
TGI [35]: > 100 µM
TGI [36]: > 100 µM
TGI [37]: > 100 µM
TGI [38]: > 100 µM
TGI [39]: > 100 µM
TGI [40]: > 100 µM
TGI [41]: > 100 µM
TGI [42]: > 100 µM
TGI [43]: > 100 µM
TGI [44]: > 100 µM
TGI [45]: 55.1 µM
TGI [46]: > 100 µM
TGI [47]: > 100 µM
TGI [48]: 31 µM
TGI [49]: > 100 µM
TGI [50]: > 100 µM
TGI [51]: 34.6 µM
TGI [52]: 32.6 µM
TGI [53]: > 100 µM
TGI [54]: > 100 µM
TGI [55]: > 100 µM
TGI [56]: > 100 µM
TGI [57]: > 100 µM
TGI [58]: > 100 µM

C[C@H]1/C(=C/C(=O)OCCN(C)C)CC[C@H]2[C@H]1C(=O)C[C@H]1C(C)(C)[C@@H](O)CC[C@]21C
TGI [1]: > 100 µM
TGI [2]: > 100 µM
TGI [3]: > 100 µM
TGI [4]: > 100 µM
GI50 [5]: > 100 µM
TGI [5]: > 100 µM
TGI [6]: > 100 µM
TGI [7]: > 100 µM
TGI [8]: > 100 µM
TGI [9]: > 100 µM
GI50 [10]: > 100 µM
TGI [10]: > 100 µM
TGI [11]: > 100 µM
TGI [12]: > 100 µM
TGI [13]: > 100 µM
TGI [14]: > 100 µM
TGI [15]: > 100 µM
TGI [16]: > 100 µM
TGI [17]: > 100 µM
TGI [18]: > 100 µM
TGI [19]: > 100 µM
TGI [20]: > 100 µM
TGI [59]: > 100 µM
TGI [21]: > 100 µM
TGI [22]: > 100 µM
TGI [23]: > 100 µM
TGI [24]: > 100 µM
TGI [25]: > 100 µM
TGI [26]: > 100 µM
TGI [27]: > 100 µM
TGI [28]: > 100 µM
TGI [29]: > 100 µM
TGI [30]: > 100 µM
TGI [31]: > 100 µM
TGI [32]: > 100 µM
TGI [33]: > 100 µM
TGI [34]: > 100 µM
TGI [35]: > 100 µM
TGI [36]: > 100 µM
TGI [37]: > 100 µM
TGI [38]: > 100 µM
TGI [39]: > 100 µM
TGI [40]: > 100 µM
TGI [41]: > 100 µM
TGI [42]: > 100 µM
TGI [43]: > 100 µM
TGI [44]: > 100 µM
TGI [45]: > 100 µM
TGI [46]: > 100 µM
TGI [47]: > 100 µM
TGI [48]: > 100 µM
TGI [49]: > 100 µM
TGI [50]: > 100 µM
TGI [51]: > 100 µM
TGI [52]: > 100 µM
TGI [53]: > 100 µM
TGI [54]: > 100 µM
TGI [55]: > 100 µM
TGI [56]: > 100 µM
TGI [57]: > 100 µM
TGI [58]: > 100 µM

O=C1c2ccccc2C(=O)N1CCSCC(CO)SCCN1C(=O)c2ccccc2C1=O (stereo not given)
TGI [1]: > 100 µM
TGI [2]: > 100 µM
TGI [3]: > 100 µM
TGI [4]: > 100 µM
TGI [5]: > 100 µM
TGI [6]: > 100 µM
TGI [7]: > 100 µM
TGI [8]: > 100 µM
TGI [9]: > 100 µM
TGI [11]: > 100 µM
TGI [12]: > 100 µM
TGI [13]: > 100 µM
TGI [14]: > 100 µM
TGI [15]: > 100 µM
TGI [16]: > 100 µM
TGI [17]: > 100 µM
TGI [19]: > 100 µM
TGI [20]: > 100 µM
TGI [59]: > 100 µM
TGI [21]: > 100 µM
TGI [22]: > 100 µM
TGI [23]: > 100 µM
TGI [24]: > 100 µM
TGI [25]: > 100 µM
TGI [26]: > 100 µM
TGI [27]: > 100 µM
TGI [28]: > 100 µM
TGI [29]: > 100 µM
TGI [30]: > 100 µM
TGI [31]: > 100 µM
TGI [33]: > 100 µM
TGI [34]: > 100 µM
TGI [35]: > 100 µM
TGI [36]: > 100 µM
TGI [37]: > 100 µM
TGI [38]: > 100 µM
TGI [39]: > 100 µM
TGI [40]: > 100 µM
TGI [41]: > 100 µM
TGI [42]: > 100 µM
TGI [43]: > 100 µM
TGI [44]: > 100 µM
TGI [45]: > 100 µM
TGI [46]: > 100 µM
TGI [47]: > 100 µM
TGI [48]: > 100 µM
TGI [49]: > 100 µM
TGI [50]: > 100 µM
TGI [51]: > 100 µM
TGI [52]: > 100 µM
TGI [53]: > 100 µM
TGI [54]: > 100 µM
TGI [55]: > 100 µM
TGI [56]: > 100 µM
TGI [57]: 50.5 µM
TGI [58]: > 100 µM
